Our source for the EC50 and MIC values is patent publication US7582611B2, “Motilide compounds” (Pfizer Inc., priority 2005, dated 2009).

One assay deals with T1, Motilin Receptor (Oryctolagus cuniculus, UniProt G1T803).
T1 construct: strips of longitudinal smooth muscle were sliced from the segments; from tissue; host or cells: rabbit duodenum longitudinal smooth muscle strips
The assay is described as follows: Tissue based assay for motilin agonist potency (rabbit duodenum contractility). It counts as cell-based. As to conditions: rabbit duodenum strips, contraction normalized to 1 μM carbachol; read-out: Motilin Receptor Agonist Activity (EC50). The essentials: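 Longitudinal smooth-muscle strips of rabbit duodenum, mucosa removed, in oxygenated Krebs at 37 °C under 1.5 g tension; auxotonic contractions. Cumulative doses at ~2 min intervals, then 1 μM carbachol; responses minus basal tension, normalized to carbachol, fitted to R=(Rmax·C)/(EC50+C) for EC50.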

In assay [1] the test system is Streptococcus pneumoniae ATCC 6301. The assay is described as follows: Evaluation of antibacterial activity (MIC, serial dilutions on 96-well microtiter plates). Type of assay: cell-based. Conditions: ATCC6301, read-out: Antibacterial Activity (MIC, μg/mL).

In brackets after ≈: the same amount, converted by molar mass.

T1 sequence (G1T803 1-400): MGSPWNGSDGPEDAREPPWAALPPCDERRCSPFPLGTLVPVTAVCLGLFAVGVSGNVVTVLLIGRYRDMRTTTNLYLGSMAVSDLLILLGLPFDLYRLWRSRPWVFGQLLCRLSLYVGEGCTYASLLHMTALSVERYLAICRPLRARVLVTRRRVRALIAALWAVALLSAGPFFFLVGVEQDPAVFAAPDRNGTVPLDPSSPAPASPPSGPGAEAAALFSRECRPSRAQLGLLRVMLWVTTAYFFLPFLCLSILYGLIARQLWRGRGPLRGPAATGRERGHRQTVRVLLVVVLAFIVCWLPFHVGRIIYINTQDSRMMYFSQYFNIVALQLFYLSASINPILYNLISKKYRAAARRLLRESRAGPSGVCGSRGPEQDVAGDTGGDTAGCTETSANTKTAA

As for `CC[C@H]1OC(=O)[C@H](C)[C@@H](O[C@H]2C[C@@](C)(OC)[C@@H](O)[C@H](C)O2)[C@H](C)[C@@H](O[C@@H]2O[C@H](C)C[C@H](N(C)C(C)C)[C@H]2O)[C@](C)(O)C[C@@H](C)[C@H](OCCCCCC(N)=O)[C@H](C)[C@@H](O)[C@]1(C)O` [Compound A-50], the EC50 (usually the midpoint of the concentration-response curve) on Motilin Receptor was found to be 170 nM. For the same compound, the MIC in assay [1] is more than 128 µg/mL.

`CCNC(=O)NCCO[C@@H]1[C@H](C)[C@@H](O)[C@](C)(O)[C@@H](CC)OC(=O)[C@H](C)[C@@H](O[C@H]2C[C@@](C)(OC)[C@@H](O)[C@H](C)O2)[C@H](C)[C@@H](O[C@@H]2O[C@H](C)C[C@H](N(C)C(C)C)[C@H]2O)[C@](C)(O)C[C@H]1C` [Compound A-54]: at Motilin Receptor, the EC50 was 100 nM. For the same compound, in assay [1], the MIC is more than 128 µg/mL.

Take `CCOC(=O)CO[C@@H]1[C@H](C)[C@@H](O)[C@](C)(O)[C@@H](CC)OC(=O)[C@H](C)[C@@H](O[C@H]2C[C@@](C)(OC)[C@@H](O)[C@H](C)O2)[C@H](C)[C@@H](O[C@@H]2O[C@H](C)C[C@H](N(C)C(C)C)[C@H]2O)[C@](C)(O)C[C@H]1C` [Compound A-8]: at Motilin Receptor, the EC50 is 88 nM. Moreover, the MIC in assay [1] turned out to be 128 µg/mL (≈ 151 µM).

For the compound `CC[C@H]1OC(=O)[C@H](C)[C@@H](O[C@H]2C[C@@](C)(OC)[C@@H](O)[C@H](C)O2)[C@H](C)[C@@H](O[C@@H]2O[C@H](C)C[C@H](N(C)C(C)C)[C@H]2O)[C@](C)(O)C[C@@H](C)[C@H](OCCNC(=O)OC)[C@H](C)[C@@H](O)[C@]1(C)O` [Compound A-65], the EC50 on Motilin Receptor stood at 130 nM. In assay [1], the MIC was determined as 128 µg/mL (≈ 148 µM).

Regarding `CC[C@H]1OC(=O)[C@H](C)[C@@H](O[C@H]2C[C@@](C)(OC)[C@@H](O)[C@H](C)O2)[C@H](C)[C@@H](O[C@@H]2O[C@H](C)C[C@H](N(C)C(C)C)[C@H]2O)[C@](C)(O)C[C@@H](C)[C@H](OCc2nc[nH]n2)[C@H](C)[C@@H](O)[C@]1(C)O` [Compound A-55], the EC50 at Motilin Receptor was determined as 54 nM. The MIC in assay [1] was more than 128 µg/mL.

In the case of `CC[C@H]1OC(=O)[C@H](C)[C@@H](O[C@H]2C[C@@](C)(OC)[C@@H](O)[C@H](C)O2)[C@H](C)[C@@H](O[C@@H]2O[C@H](C)C[C@H](N(C)C(C)C)[C@H]2O)[C@](C)(O)C[C@@H](C)[C@H](OCC(=O)NCc2ccccc2)[C@H](C)[C@@H](O)[C@]1(C)O` [Compound A-59], the EC50 on Motilin Receptor turned out to be 79 nM. For the same compound, in assay [1], the MIC is 128 µg/mL (≈ 140 µM).

For the compound `CC[C@@H](O)[C@@](C)(O)[C@@H]1OC(=O)[C@@H](C)[C@H](C[C@H]2C[C@@](C)(OC)[C@@H](O)[C@H](C)O2)[C@H](C)[C@@H](OC2O[C@H](C)C[C@H](N(C)C(C)C)[C@H]2O)[C@@]2(C)CC(C)=C(O2)[C@@H]1C` (stereo partly shown) [KC-11458, reference compound], at Motilin Receptor, the EC50 was determined as 45 nM. The MIC in assay [1] was more than 128 µg/mL.

As to `CC[C@H]1OC(=O)[C@H](C)[C@@H](O[C@H]2C[C@@](C)(OC)[C@@H](O)[C@H](C)O2)[C@H](C)[C@@H](O[C@@H]2O[C@H](C)C[C@H](N(C)C(C)C)[C@H]2O)[C@](C)(O)C[C@@H](C)[C@H](OCCCC(=O)NC)[C@H](C)[C@@H](O)[C@]1(C)O` [Compound A-73], the EC50 at Motilin Receptor came out at 84 nM. In addition, the MIC in assay [1] was 128 µg/mL (≈ 148 µM).

For the compound `CC[C@H]1OC(=O)[C@H](C)[C@@H](O[C@H]2C[C@@](C)(OC)[C@@H](O)[C@H](C)O2)[C@H](C)[C@@H](O[C@@H]2O[C@H](C)C[C@H](N(C)C(C)C)[C@H]2O)[C@](C)(O)C[C@@H](C)[C@H](OCC(=O)NC2CCOCC2)[C@H](C)[C@@H](O)[C@]1(C)O` [Compound A-33], the concentration giving a half-maximal response (EC50) at Motilin Receptor came to 120 nM. Further, in assay [1], the MIC is more than 128 µg/mL.

Take `CCC(=O)O[C@@H]1[C@H](C)[C@@H](O)[C@](C)(O)[C@@H](CC)OC(=O)[C@H](C)[C@@H](O[C@H]2C[C@@](C)(OC)[C@@H](O)[C@H](C)O2)[C@H](C)[C@@H](O[C@@H]2O[C@H](C)C[C@H](N(C)C3CCC3)[C@H]2O)[C@](C)(O)C[C@H]1C` [Compound A-25]: at Motilin Receptor, the EC50 worked out at 1200 nM. Further, the MIC in assay [1] is more than 128 µg/mL.

As to `CC[C@H]1OC(=O)[C@H](C)[C@@H](O[C@H]2C[C@@](C)(OC)[C@@H](O)[C@H](C)O2)[C@H](C)[C@@H](O[C@@H]2O[C@H](C)C[C@H](N(C)C(C)C)[C@H]2O)[C@](C)(O)C[C@@H](C)[C@H](OCCCCCC(=O)NC)[C@H](C)[C@@H](O)[C@]1(C)O` [Compound A-76], the EC50 on Motilin Receptor stood at 150 nM. The MIC in assay [1] came to 128 µg/mL (≈ 144 µM).

As for `CC[C@H]1OC(=O)[C@H](C)[C@@H](O[C@H]2C[C@@](C)(OC)[C@@H](O)[C@H](C)O2)[C@H](C)[C@@H](O[C@@H]2O[C@H](C)C[C@H](N(C)C(C)C)[C@H]2O)[C@](C)(O)C[C@@H](C)[C@H](OCc2nccs2)[C@H](C)[C@@H](O)[C@]1(C)O` [Compound A-29], the EC50 at Motilin Receptor was 290 nM. Moreover, the MIC in assay [1] is 128 µg/mL (≈ 149 µM).

Consider `CC[C@H]1OC(=O)[C@H](C)[C@@H](O[C@H]2C[C@@](C)(OC)[C@@H](O)[C@H](C)O2)[C@H](C)[C@@H](O[C@@H]2O[C@H](C)C[C@H](N(C)C(C)C)[C@H]2O)[C@](C)(O)C[C@@H](C)[C@H](OCCO)[C@H](C)[C@@H](O)[C@]1(C)O` [Compound A-3], for which, at Motilin Receptor, the EC50 turned out to be 54 nM. Moreover, the MIC in assay [1] came out at 64 µg/mL (≈ 79.2 µM).

`CCOC(=O)CO[C@@H]1[C@H](C)[C@@H](O)[C@](C)(O)[C@@H](CC)OC(=O)[C@H](C)[C@@H](O[C@H]2C[C@@](C)(OC)[C@@H](O)[C@H](C)O2)[C@H](C)[C@@H](O[C@@H]2O[C@H](C)C[C@H](N(C)C[C@H](C)O)[C@H]2O)[C@](C)(O)C[C@H]1C` [Compound A-9]: the EC50 at Motilin Receptor was determined as 430 nM. In addition, the MIC in assay [1] is more than 128 µg/mL.
